Source: ChEMBL document CHEMBL5303573, “Mapping human microbiome drug metabolism by gut bacteria and their genes” (Nature, 2019)

Experiment: The drug is tested on Dorea formicigenerans strain: ATCC27755 for biotransformation. The drug concentrations were measured before and after a 12-h incubation by liquid-chromatography-coupled mass spectrometry (LC–MS)
Conditions: 2 µM
With `CNNCc1ccc(C(=O)NC(C)C)cc1` [PROCARBAZINE] the “Bacterial Biotransformation” value was “Compound NOT metabolized”.
For `O=C(CCCN1CCC2(CC1)C(=O)NCN2c1ccccc1)c1ccc(F)cc1` [SPIPERONE], the “Bacterial Biotransformation” value was “Compound NOT metabolized”.
For `OCCOCCN1CCN(C2=Nc3ccccc3Sc3ccccc32)CC1` [QUETIAPINE], the “Bacterial Biotransformation” value was “Compound NOT metabolized”.

Experiment: The drug is tested on Bacteroides xylanisolvens strain: DSM18836 for biotransformation. The drug concentrations were measured before and after a 12-h incubation by liquid-chromatography-coupled mass spectrometry (LC–MS)
Conditions: 2 µM
For `CNNCc1ccc(C(=O)NC(C)C)cc1` [PROCARBAZINE], the “Bacterial Biotransformation” value was “Compound NOT metabolized”.
For `O=C(CCCN1CCC2(CC1)C(=O)NCN2c1ccccc1)c1ccc(F)cc1` [SPIPERONE], the “Bacterial Biotransformation” value was “Compound NOT metabolized”.

Experiment: The drug is tested on Clostridium sporogenes strain: ATCC15579 for biotransformation. The drug concentrations were measured before and after a 12-h incubation by liquid-chromatography-coupled mass spectrometry (LC–MS)
Conditions: 2 µM
In the case of `CNNCc1ccc(C(=O)NC(C)C)cc1` [PROCARBAZINE], the “Bacterial Biotransformation” value is reported as “Compound NOT metabolized”.

Experiment: The drug is tested on Eubacterium ventriosum strain: ATCC27560 for biotransformation. The drug concentrations were measured before and after a 12-h incubation by liquid-chromatography-coupled mass spectrometry (LC–MS)
Format: ADME
Parameters: dose 2 uM, timepoint 0 vs 12 hours
Conditions: 2 µM
With `CNNCc1ccc(C(=O)NC(C)C)cc1` [PROCARBAZINE] the “Bacterial Biotransformation” value was “Compound NOT metabolized”.
For `O=C(CCCN1CCC2(CC1)C(=O)NCN2c1ccccc1)c1ccc(F)cc1` [SPIPERONE], the “Bacterial Biotransformation” value was “Compound NOT metabolized”.
In the case of `OCCOCCN1CCN(C2=Nc3ccccc3Sc3ccccc32)CC1` [QUETIAPINE], the “Bacterial Biotransformation” value is reported as “Compound NOT metabolized”.

Experiment: The drug is tested on Bifidobacterium ruminantium strain: fecal isolate for biotransformation. The drug concentrations were measured before and after a 12-h incubation by liquid-chromatography-coupled mass spectrometry (LC–MS)
Conditions: 2 µM
In the case of `O=C(CCCN1CCC2(CC1)C(=O)NCN2c1ccccc1)c1ccc(F)cc1` [SPIPERONE], the “Bacterial Biotransformation” value is reported as “Compound NOT metabolized”.
With `OCCOCCN1CCN(C2=Nc3ccccc3Sc3ccccc32)CC1` [QUETIAPINE] the “Bacterial Biotransformation” value was “Compound NOT metabolized”.

Experiment: The drug is tested on Providencia rettgeri strain: DSM1131 for biotransformation. The drug concentrations were measured before and after a 12-h incubation by liquid-chromatography-coupled mass spectrometry (LC–MS)
Format: ADME
Parameters: dose 2 uM, timepoint 0 vs 12 hours
Conditions: 2 µM
For `CNNCc1ccc(C(=O)NC(C)C)cc1` [PROCARBAZINE], the “Bacterial Biotransformation” value was “Compound NOT metabolized”.

Experiment: The drug is tested on Alistipes indistinctus strain: DSM22520 for biotransformation. The drug concentrations were measured before and after a 12-h incubation by liquid-chromatography-coupled mass spectrometry (LC–MS)
Conditions: 2 µM
For `CNNCc1ccc(C(=O)NC(C)C)cc1` [PROCARBAZINE], the “Bacterial Biotransformation” value was “Compound NOT metabolized”.
In the case of `O=C(CCCN1CCC2(CC1)C(=O)NCN2c1ccccc1)c1ccc(F)cc1` [SPIPERONE], the “Bacterial Biotransformation” value is reported as “Compound NOT metabolized”.
With `OCCOCCN1CCN(C2=Nc3ccccc3Sc3ccccc32)CC1` [QUETIAPINE] the “Bacterial Biotransformation” value was “Compound NOT metabolized”.

Experiment: The drug is tested on Blautia hansenii strain: DSM20583 for biotransformation. The drug concentrations were measured before and after a 12-h incubation by liquid-chromatography-coupled mass spectrometry (LC–MS)
Conditions: 2 µM
With `CNNCc1ccc(C(=O)NC(C)C)cc1` [PROCARBAZINE] the “Bacterial Biotransformation” value was “Compound NOT metabolized”.
In the case of `O=C(CCCN1CCC2(CC1)C(=O)NCN2c1ccccc1)c1ccc(F)cc1` [SPIPERONE], the “Bacterial Biotransformation” value is reported as “Compound NOT metabolized”.
With `OCCOCCN1CCN(C2=Nc3ccccc3Sc3ccccc32)CC1` [QUETIAPINE] the “Bacterial Biotransformation” value was “Compound NOT metabolized”.

Conditions: anaerostipes sp., 12 h, 2 µM
Description: The drug is tested on Anaerostipes sp. strain: fecal isolate for biotransformation. The drug concentrations were measured before and after a 12-h incubation by liquid-chromatography-coupled mass spectrometry (LC–MS)
With `CNNCc1ccc(C(=O)NC(C)C)cc1` [PROCARBAZINE] the “Bacterial Biotransformation” value was “Compound NOT metabolized”.
For `O=C(CCCN1CCC2(CC1)C(=O)NCN2c1ccccc1)c1ccc(F)cc1` [SPIPERONE], the “Bacterial Biotransformation” value was “Compound NOT metabolized”.
In the case of `OCCOCCN1CCN(C2=Nc3ccccc3Sc3ccccc32)CC1` [QUETIAPINE], the “Bacterial Biotransformation” value is reported as “Compound NOT metabolized”.

Experiment: The drug is tested on Ruminococcus torques strain: ATCC27756 for biotransformation. The drug concentrations were measured before and after a 12-h incubation by liquid-chromatography-coupled mass spectrometry (LC–MS)
Format: ADME
Parameters: dose 2 uM, timepoint 0 vs 12 hours
Conditions: 2 µM
With `CNNCc1ccc(C(=O)NC(C)C)cc1` [PROCARBAZINE] the “Bacterial Biotransformation” value was “Compound NOT metabolized”.
For `O=C(CCCN1CCC2(CC1)C(=O)NCN2c1ccccc1)c1ccc(F)cc1` [SPIPERONE], the “Bacterial Biotransformation” value was “Compound NOT metabolized”.
For `OCCOCCN1CCN(C2=Nc3ccccc3Sc3ccccc32)CC1` [QUETIAPINE], the “Bacterial Biotransformation” value was “Compound NOT metabolized”.

Experiment: The drug is tested on Bacteroides vulgatus strain: ATCC8482 for biotransformation. The drug concentrations were measured before and after a 12-h incubation by liquid-chromatography-coupled mass spectrometry (LC–MS)
Conditions: phocaeicola vulgatus, 2 µM
With `CNNCc1ccc(C(=O)NC(C)C)cc1` [PROCARBAZINE] the “Bacterial Biotransformation” value was “Compound NOT metabolized”.
In the case of `OCCOCCN1CCN(C2=Nc3ccccc3Sc3ccccc32)CC1` [QUETIAPINE], the “Bacterial Biotransformation” value is reported as “Compound NOT metabolized”.

Experiment: The drug is tested on Coprococcus comes strain: ATCC27758 for biotransformation. The drug concentrations were measured before and after a 12-h incubation by liquid-chromatography-coupled mass spectrometry (LC–MS)
Format: ADME
Parameters: dose 2 uM, timepoint 0 vs 12 hours
Conditions: 2 µM
For `CNNCc1ccc(C(=O)NC(C)C)cc1` [PROCARBAZINE], the “Bacterial Biotransformation” value was “Compound NOT metabolized”.
For `OCCOCCN1CCN(C2=Nc3ccccc3Sc3ccccc32)CC1` [QUETIAPINE], the “Bacterial Biotransformation” value was “Compound NOT metabolized”.

Conditions: segatella copri, 12 h, 2 µM
Description: The drug is tested on Prevotella copri strain: DSM18205 for biotransformation. The drug concentrations were measured before and after a 12-h incubation by liquid-chromatography-coupled mass spectrometry (LC–MS)
For `CNNCc1ccc(C(=O)NC(C)C)cc1` [PROCARBAZINE], the “Bacterial Biotransformation” value was “Compound NOT metabolized”.
In the case of `O=C(CCCN1CCC2(CC1)C(=O)NCN2c1ccccc1)c1ccc(F)cc1` [SPIPERONE], the “Bacterial Biotransformation” value is reported as “Compound NOT metabolized”.
In the case of `OCCOCCN1CCN(C2=Nc3ccccc3Sc3ccccc32)CC1` [QUETIAPINE], the “Bacterial Biotransformation” value is reported as “Compound NOT metabolized”.

Experiment: The drug is tested on Bacteroides fragilis strain: HMW615 for biotransformation. The drug concentrations were measured before and after a 12-h incubation by liquid-chromatography-coupled mass spectrometry (LC–MS)
Conditions: 2 µM
For `CNNCc1ccc(C(=O)NC(C)C)cc1` [PROCARBAZINE], the “Bacterial Biotransformation” value was “Compound metabolized”.
With `O=C(CCCN1CCC2(CC1)C(=O)NCN2c1ccccc1)c1ccc(F)cc1` [SPIPERONE] the “Bacterial Biotransformation” value was “Compound NOT metabolized”.
With `OCCOCCN1CCN(C2=Nc3ccccc3Sc3ccccc32)CC1` [QUETIAPINE] the “Bacterial Biotransformation” value was “Compound NOT metabolized”.

Experiment: The drug is tested on Enterococcus faecalis strain: V583 for biotransformation. The drug concentrations were measured before and after a 12-h incubation by liquid-chromatography-coupled mass spectrometry (LC–MS)
Conditions: 2 µM
In the case of `CNNCc1ccc(C(=O)NC(C)C)cc1` [PROCARBAZINE], the “Bacterial Biotransformation” value is reported as “Compound NOT metabolized”.
With `O=C(CCCN1CCC2(CC1)C(=O)NCN2c1ccccc1)c1ccc(F)cc1` [SPIPERONE] the “Bacterial Biotransformation” value was “Compound NOT metabolized”.

Experiment: The drug is tested on Odoribacter splanchnicus strain: fecal isolate for biotransformation. The drug concentrations were measured before and after a 12-h incubation by liquid-chromatography-coupled mass spectrometry (LC–MS)
Conditions: 2 µM
In the case of `CNNCc1ccc(C(=O)NC(C)C)cc1` [PROCARBAZINE], the “Bacterial Biotransformation” value is reported as “Compound NOT metabolized”.
For `OCCOCCN1CCN(C2=Nc3ccccc3Sc3ccccc32)CC1` [QUETIAPINE], the “Bacterial Biotransformation” value was “Compound NOT metabolized”.

Experiment: The drug is tested on Ruminococcus lactaris strain: ATCC29176 for biotransformation. The drug concentrations were measured before and after a 12-h incubation by liquid-chromatography-coupled mass spectrometry (LC–MS)
Conditions: 2 µM
In the case of `CNNCc1ccc(C(=O)NC(C)C)cc1` [PROCARBAZINE], the “Bacterial Biotransformation” value is reported as “Compound NOT metabolized”.
With `O=C(CCCN1CCC2(CC1)C(=O)NCN2c1ccccc1)c1ccc(F)cc1` [SPIPERONE] the “Bacterial Biotransformation” value was “Compound NOT metabolized”.
In the case of `OCCOCCN1CCN(C2=Nc3ccccc3Sc3ccccc32)CC1` [QUETIAPINE], the “Bacterial Biotransformation” value is reported as “Compound NOT metabolized”.

Conditions: roseburia intestinalis, 12 h, 2 µM
Description: The drug is tested on Roseburia intestinalis strain: L1-82 for biotransformation. The drug concentrations were measured before and after a 12-h incubation by liquid-chromatography-coupled mass spectrometry (LC–MS)
For `CNNCc1ccc(C(=O)NC(C)C)cc1` [PROCARBAZINE], the “Bacterial Biotransformation” value was “Compound NOT metabolized”.
For `OCCOCCN1CCN(C2=Nc3ccccc3Sc3ccccc32)CC1` [QUETIAPINE], the “Bacterial Biotransformation” value was “Compound NOT metabolized”.

Experiment: The drug is tested on Bacteroides uniformis strain: ATCC8492 for biotransformation. The drug concentrations were measured before and after a 12-h incubation by liquid-chromatography-coupled mass spectrometry (LC–MS)
Conditions: 2 µM
With `CNNCc1ccc(C(=O)NC(C)C)cc1` [PROCARBAZINE] the “Bacterial Biotransformation” value was “Compound NOT metabolized”.
For `O=C(CCCN1CCC2(CC1)C(=O)NCN2c1ccccc1)c1ccc(F)cc1` [SPIPERONE], the “Bacterial Biotransformation” value was “Compound NOT metabolized”.
With `OCCOCCN1CCN(C2=Nc3ccccc3Sc3ccccc32)CC1` [QUETIAPINE] the “Bacterial Biotransformation” value was “Compound NOT metabolized”.

Conditions: akkermansia muciniphila, 12 h, 2 µM
Description: The drug is tested on Akkermansia muciniphila strain: ATCC BAA-835 for biotransformation. The drug concentrations were measured before and after a 12-h incubation by liquid-chromatography-coupled mass spectrometry (LC–MS)
For `CNNCc1ccc(C(=O)NC(C)C)cc1` [PROCARBAZINE], the “Bacterial Biotransformation” value was “Compound NOT metabolized”.
With `O=C(CCCN1CCC2(CC1)C(=O)NCN2c1ccccc1)c1ccc(F)cc1` [SPIPERONE] the “Bacterial Biotransformation” value was “Compound NOT metabolized”.
For `OCCOCCN1CCN(C2=Nc3ccccc3Sc3ccccc32)CC1` [QUETIAPINE], the “Bacterial Biotransformation” value was “Compound NOT metabolized”.
